Data set [1] relates to human breast cancer cells. Kind of data set: Breast cancer cell count assay, cell line not specified or pooled. The data set is classed as cell-based. The settings on record: Homo sapiens; cell line not stated; read-out: IC50 of adriamycin. Here is the method:
The cell suspensions were counted with an automated cell counter (ZM-2 Coulter Counter) by adding 15 mL saline+0.2 ml of cell suspension. • Cells were resuspended to a number of: […] The cell suspensions were counted with an automated cell counter (ZM-2 Coulter Counter) by adding 15 mL saline+0.2 ml of cell suspension. Results were expressed as % of no drug control which was calculated as: […]

The conditions of data set [2]: substance implied by list of adriamycin groups; cited from earlier work.
A short description of data set [3]: 6-week study: treatment toxicity (body mass, blood, organ mass, survival). The settings on record: 30 mg/kg 5-FU.
The nature of data set [4]: 14-week study: treatment toxicity and weight. The settings on record: 50 mg/kg weekly.
Data set [5] in a line: In vivo toxicology, daily iv Camptosar or HyCAMP. The settings on record: for immediate neurological toxicity, early or late on-set diarrhea: Camptosar or HyCAMP; for LD50: iv.
Data set [6] has as its system Human LIM1215 colon cancer xenografts. Put plainly: 14-week efficacy study, irinotecan ± HA in colon cancer xenografts. The data set is classed as in vivo, mouse. The settings on record: 50 mg/kg weekly; listed as irinotecan, hydrochloride. The text has this: Human LIM1215 colon cancer xenografts were inoculated into the mammary fat pad of athymic […] nude mice. Mice were randomly distributed into eight treatment groups (8 mice per group).
The treatment regime comprised of injections on Day 1 of a 7-day cycle for duration of fourteen weeks. Primary tumor volume, animal body mass, energy levels and food consumption were monitored three times weekly.
Athymic CBA/WEHI nude female mice (Walter and Eliza Hall Research Institute, Melbourne, Australia), 6 to 8 weeks old, were maintained under specific pathogen-free conditions, with sterilized food and water available ad libitum. Each mouse received one injection containing 1×10^7 cells in 50-100 μl. […]
Any animals with a tumor volume expressed as a percentage of body weight outside 0.25±0.10 (mean±1 SD) were excluded from data analysis. […]
The experimental end-point for each animal occurred either when the animal had to be euthanized due to a high degree of disease progression or when the 14-week study had been completed. The animals were monitored three times weekly and the following criteria were established to determine whether an animal had reached the experimental end point: tumour mass is greater than 10% of the animals total body mass; the animal is metabolically stressed (i.e. losing weight); or the animal is immobilized.

In a further data set the test system is HT-29. Put plainly: Drug cytotoxicity assay, Camptosar ± 100 nM hyaluronan. The data set is classed as cell-based. The settings on record: Homo sapiens, 48 hours continuous exposure, HyCAMP = Camptosar + 100 nM hyaluronan. The source says: (§1) Human Colon Carcinoma Cell Lines HT-29, HCT-116, SK-CO-1, SW620, SW1222 were obtained from the Peter MacCallum, Cancer Institute, Melbourne. […] Human colon carcinoma cell lines 1215 and LIM2099 were kindly donated by Dr R Whitehead, Ludwig Institute, Melbourne. […] The various concentrations of Camptosar were achieved by diluting in the appropriate amount of growth media The HCT-116, HT-29, SK-CO-1, LIM1215, LIM2099, SW620 and SW1222 cell lines were routinely grown to 80% confluency. The cells were removed from the culture flask and counted using the haematocytometer. The cells HT-29, HCT-116, SK-CO-1, SW620 and SW1222 were resuspended to 15,000 cells/ml of cell-specific media. The LIM1215 and LIM2099 were resuspended to 30,000 cells/ml of cell-specific media. The cells were plated into 48 well culture plates (1 cm^2 surface area) by adding 1 ml of cell suspension per well. The cells were allowed to attach overnight prior to exposure to the test media. The cells were continuously exposed to the following concentrations of test media: 0 μg/ml, 0.25 μg/ml, 0.5 μg/ml, 1 μg/ml, 5 μg/ml, 25 μg/ml and 50 μg/ml Camptosar±100 nM hyaluronan (Modal Mw 850,000). The cells were continuously incubated with the test media for 48 hours. On the day of analysis, the cells were washed with Hanks Balanced Salt Solution. Subsequently, the cells were removed by trypsinization with 0.25% trypsin/EDTA. An aliquot of the trypsinized cell suspension was counted by the Coulter Counter. The raw duplicate or triplicate counts per well were obtained from the Z2 coulter counter. The counts will be averaged and will be expressed as percentage of no drug control.

Another data set has as its system SW 620. Described as above. Type of data set: cell-based. The settings on record: Homo sapiens, 48 hours continuous exposure, HyCAMP = Camptosar + 100 nM hyaluronan.
Excerpt: as §1

In the next data set the test system is SW1222. The description is as above. The data set is classed as cell-based. The settings on record: Homo sapiens, 48 hours continuous exposure, HyCAMP = Camptosar + 100 nM hyaluronan.
Excerpt: as §1

The next data set relates to HCT-116. Described as above. The data set is classed as cell-based. The settings on record: Homo sapiens, 48 hours continuous exposure, HyCAMP = Camptosar + 100 nM hyaluronan.
Excerpt: as §1

For a further data set, the system named is LIM 2099. Described as above. The data set is classed as cell-based. The settings on record: Homo sapiens; 48 hours continuous exposure; HyCAMP = Camptosar + 100 nM hyaluronan.
Excerpt: as §1

Another data set deals with SK-CO-1. The description is as above. The settings on record: Homo sapiens, 48 hours continuous exposure, HyCAMP = Camptosar + 100 nM hyaluronan. Type of data set: cell-based.
Excerpt: as §1

The test system of a further data set is LIM 1215. The description is as above. Type of data set: cell-based. The settings on record: Homo sapiens, LIM1215; 48 hours continuous exposure; HyCAMP = Camptosar + 100 nM hyaluronan.
Excerpt: as §1

Structures can show the parent of a compound that is named as a salt.

As to `COc1cccc2c1C(=O)c1c(O)c3c(c(O)c1C2=O)C[C@@](O)(C(=O)CO)C[C@@H]3O[C@H]1C[C@H](N)[C@H](O)[C@H](C)O1` [adriamycin, doxorubicin, reference compound], the IC50 in [1] stood at 0.09 µM. Further, the “Mouse LD50” value in data set [2] was 10 mg/kg.

As to `O=c1[nH]cc(F)c(=O)[nH]1` [5-FU, 5-fluorouracil, reference compound], the “shrinkage of the uterus” value in [3] was determined as 22%. Also, the “enlarged spleen, increase in mass” value in [3] (vs saline group) is 61%.

With `CCc1c2c(nc3ccc(OC(=O)N4CCC(N5CCCCC5)CC4)cc13)-c1cc3c(c(=O)n1C2)COC(=O)[C@]3(O)CC` [Camptosar, irinotecan hydrochloride], the “degree of observed weight loss, irinotecan vs HyCAMP groups” value in [4] is given as “comparable”. In addition, the “accumulative dose received without severe adverse effects” value in data set [5] (25 mg/kg daily iv) was 350 mg/kg. Also, the “body weight lost compared to HyCAMP group” value in data set [5] (25 mg/kg daily iv) came out at 18%. Moreover, the survival time in data set [5] (25 mg/kg daily iv (HyCAMP: + 13.3 mg/kg HA)) is given as 14 days; in data set [5] (50 mg/kg daily iv), at most 12 days; in [5] (100 mg/kg daily iv), at most 7 days. Also, the “immediate neurological toxicity, early or late on-set diarrhea” value in data set [5] (25 mg/kg daily iv) is listed as “did not exhibit any immediate neurological toxicity, early or late on-set diarrhea”; in data set [5] (50 mg/kg daily iv), “did not exhibit any immediate neurological toxicity, early or late on-set diarrhea”. The diarrhea grade in [5] (100 mg/kg daily iv) is on record as 2-3 Grade. Also, the “onset of neurological effects after injection” value in data set [5] (100 mg/kg iv), in data set [5] (150 mg/kg iv) and in data set [5] (200 mg/kg iv) was 30 seconds each time. Further, the “time to fully recuperate from neurological effects” value in [5] (100 mg/kg iv) was found to be 5 h. Moreover, the “recuperation from neurological effects” value in data set [5] (150 mg/kg iv) and in data set [5] (200 mg/kg iv) was “did not recuperate” in each case. For the same molecule, in data set [5] (50-100 mg/kg), the “organ mass compared to HyCAMP treatment group” value is “significant increase in the mass of the stomach, lungs, spleen and brain”. In addition, the LD50 at 14 days in data set [5] (male, F1 CBAXC57 (out-bred), mouse, in vivo, intravenous) was 475 to 550 mg/kg. For the same molecule, the LD50 was 475 mg/kg in data set [5] (male, F1 CBAXC57 (out-bred), mouse, in vivo, 50 mg/kg) and 550 mg/kg in data set [5] (male, F1 CBAXC57 (out-bred), mouse, in vivo, 100 mg/kg). The molecule also showed a lethal dose in data set [5] (single bolus iv) of over 100 mg/kg. In addition, the “population survival to the end of the 14-week study” value in data set [6] is listed as “approximately 57%”. The IC50 in the data set with HT-29 amounted to 16 µM; in the data set on SW 620 it was 10 µM; in the data set with SW1222, 32 µM; in the data set on HCT-116, 1.5 µM; with LIM 2099 it was 31 µM; in the data set on SK-CO-1 it was 5 µM. In the data set on LIM 1215, the half-maximal inhibitory concentration (IC50) is 16 µM.

The record behind these values is patent US20060178342A1, “Hyaluronan as a cytotoxic agent, drug pre-sensitizer and chemo-sensitizer in the treatment of disease” (priority 2001, published 2006).
